Assay results as given in paper PMC6199744, “Development of Chemical Proteomics for the Folateome and Analysis of the Kinetoplastid Folateome” (ACS Infectious Diseases, 2018).
Where two headings read alike, the source gives them in different places.

Experiments:
Format in all cases: binding
[1] = target: T1, HeLa cell extract proteins (Homo sapiens, UniProt O95487)
T1 construct: endogenous in cells; host or cells: HeLa cell extract
T1 sequence (O95487 1-1268): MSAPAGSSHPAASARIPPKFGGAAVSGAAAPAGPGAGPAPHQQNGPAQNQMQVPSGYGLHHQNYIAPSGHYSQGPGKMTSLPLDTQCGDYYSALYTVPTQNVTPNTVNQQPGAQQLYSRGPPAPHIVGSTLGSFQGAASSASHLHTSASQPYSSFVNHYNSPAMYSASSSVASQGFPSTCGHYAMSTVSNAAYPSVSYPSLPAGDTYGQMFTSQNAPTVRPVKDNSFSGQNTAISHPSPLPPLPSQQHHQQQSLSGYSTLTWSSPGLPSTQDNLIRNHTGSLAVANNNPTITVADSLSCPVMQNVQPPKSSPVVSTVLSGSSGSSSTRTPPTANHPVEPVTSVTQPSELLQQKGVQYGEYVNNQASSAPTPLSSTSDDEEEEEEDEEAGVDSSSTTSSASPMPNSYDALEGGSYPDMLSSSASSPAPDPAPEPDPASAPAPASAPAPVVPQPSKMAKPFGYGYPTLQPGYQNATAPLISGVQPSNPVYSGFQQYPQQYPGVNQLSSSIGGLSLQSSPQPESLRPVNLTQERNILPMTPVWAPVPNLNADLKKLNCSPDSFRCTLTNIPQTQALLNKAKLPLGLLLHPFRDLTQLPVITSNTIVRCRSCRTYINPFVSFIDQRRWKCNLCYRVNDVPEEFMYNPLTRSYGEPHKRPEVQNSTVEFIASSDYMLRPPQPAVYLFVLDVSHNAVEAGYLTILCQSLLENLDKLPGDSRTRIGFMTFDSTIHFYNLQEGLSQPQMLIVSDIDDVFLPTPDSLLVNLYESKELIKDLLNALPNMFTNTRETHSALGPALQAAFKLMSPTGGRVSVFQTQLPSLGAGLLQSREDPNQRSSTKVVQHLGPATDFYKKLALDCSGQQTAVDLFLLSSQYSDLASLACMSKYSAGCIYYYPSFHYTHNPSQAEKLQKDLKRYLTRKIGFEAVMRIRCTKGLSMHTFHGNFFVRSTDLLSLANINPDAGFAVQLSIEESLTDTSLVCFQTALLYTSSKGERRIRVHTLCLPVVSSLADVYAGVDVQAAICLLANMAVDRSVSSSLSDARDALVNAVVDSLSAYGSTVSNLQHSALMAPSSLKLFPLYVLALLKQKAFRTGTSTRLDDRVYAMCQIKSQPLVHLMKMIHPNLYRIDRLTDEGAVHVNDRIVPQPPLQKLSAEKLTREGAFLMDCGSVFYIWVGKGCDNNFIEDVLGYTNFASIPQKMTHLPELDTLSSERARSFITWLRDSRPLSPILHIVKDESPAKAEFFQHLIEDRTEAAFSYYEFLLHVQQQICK

[2] = target: T2, HeLa cell extract proteins (Homo sapiens, UniProt P08237)
T2 construct: endogenous in cells; host or cells: HeLa cell extract
T2 sequence (P08237 1-780): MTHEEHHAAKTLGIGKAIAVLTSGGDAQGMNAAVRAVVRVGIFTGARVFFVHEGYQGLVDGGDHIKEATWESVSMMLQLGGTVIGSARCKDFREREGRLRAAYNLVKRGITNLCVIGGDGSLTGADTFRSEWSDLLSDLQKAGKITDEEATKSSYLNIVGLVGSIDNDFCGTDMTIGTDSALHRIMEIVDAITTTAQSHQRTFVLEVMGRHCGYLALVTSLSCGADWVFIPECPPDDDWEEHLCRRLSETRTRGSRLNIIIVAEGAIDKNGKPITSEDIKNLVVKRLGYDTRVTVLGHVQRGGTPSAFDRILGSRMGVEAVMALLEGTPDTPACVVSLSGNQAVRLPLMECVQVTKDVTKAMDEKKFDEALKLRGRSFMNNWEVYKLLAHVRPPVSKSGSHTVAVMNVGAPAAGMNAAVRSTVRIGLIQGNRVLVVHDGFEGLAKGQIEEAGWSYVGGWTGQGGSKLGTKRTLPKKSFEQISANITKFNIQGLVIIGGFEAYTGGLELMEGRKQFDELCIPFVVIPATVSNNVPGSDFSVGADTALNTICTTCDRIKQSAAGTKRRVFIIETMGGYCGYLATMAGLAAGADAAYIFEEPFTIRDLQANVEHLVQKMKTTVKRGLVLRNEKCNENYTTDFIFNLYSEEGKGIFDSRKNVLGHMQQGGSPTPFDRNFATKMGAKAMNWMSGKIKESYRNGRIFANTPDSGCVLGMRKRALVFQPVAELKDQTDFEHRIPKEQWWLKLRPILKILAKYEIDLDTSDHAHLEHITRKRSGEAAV

[3] = target: T3, HeLa cell extract proteins (Homo sapiens, UniProt P24534)
T3 construct: endogenous in cells; host or cells: HeLa cell extract
T3 sequence (P24534 1-225): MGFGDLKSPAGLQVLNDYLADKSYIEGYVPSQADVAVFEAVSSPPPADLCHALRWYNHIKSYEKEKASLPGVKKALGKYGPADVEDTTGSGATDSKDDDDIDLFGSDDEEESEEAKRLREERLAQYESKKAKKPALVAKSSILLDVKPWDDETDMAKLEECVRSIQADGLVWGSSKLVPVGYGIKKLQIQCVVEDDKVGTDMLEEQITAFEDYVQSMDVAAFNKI

[4] = target: T4, HeLa cell extract proteins (Homo sapiens, UniProt P62195)
T4 construct: endogenous in cells; host or cells: HeLa cell extract
T4 sequence (P62195 whole entry): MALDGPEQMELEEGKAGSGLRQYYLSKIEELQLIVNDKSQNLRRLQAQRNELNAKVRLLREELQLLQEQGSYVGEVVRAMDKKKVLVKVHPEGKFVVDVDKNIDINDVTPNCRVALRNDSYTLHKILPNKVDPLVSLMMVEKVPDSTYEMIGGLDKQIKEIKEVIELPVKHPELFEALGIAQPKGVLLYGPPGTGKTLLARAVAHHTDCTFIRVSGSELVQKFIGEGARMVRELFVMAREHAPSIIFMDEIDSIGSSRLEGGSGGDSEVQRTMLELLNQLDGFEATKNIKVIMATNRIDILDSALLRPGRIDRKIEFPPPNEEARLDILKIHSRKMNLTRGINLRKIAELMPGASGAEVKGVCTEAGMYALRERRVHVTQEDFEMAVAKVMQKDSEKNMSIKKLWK

[5] = target: T5, HeLa cell extract proteins (Homo sapiens, UniProt Q14764)
T5 construct: endogenous in cells; host or cells: HeLa cell extract
T5 sequence (Q14764 whole entry): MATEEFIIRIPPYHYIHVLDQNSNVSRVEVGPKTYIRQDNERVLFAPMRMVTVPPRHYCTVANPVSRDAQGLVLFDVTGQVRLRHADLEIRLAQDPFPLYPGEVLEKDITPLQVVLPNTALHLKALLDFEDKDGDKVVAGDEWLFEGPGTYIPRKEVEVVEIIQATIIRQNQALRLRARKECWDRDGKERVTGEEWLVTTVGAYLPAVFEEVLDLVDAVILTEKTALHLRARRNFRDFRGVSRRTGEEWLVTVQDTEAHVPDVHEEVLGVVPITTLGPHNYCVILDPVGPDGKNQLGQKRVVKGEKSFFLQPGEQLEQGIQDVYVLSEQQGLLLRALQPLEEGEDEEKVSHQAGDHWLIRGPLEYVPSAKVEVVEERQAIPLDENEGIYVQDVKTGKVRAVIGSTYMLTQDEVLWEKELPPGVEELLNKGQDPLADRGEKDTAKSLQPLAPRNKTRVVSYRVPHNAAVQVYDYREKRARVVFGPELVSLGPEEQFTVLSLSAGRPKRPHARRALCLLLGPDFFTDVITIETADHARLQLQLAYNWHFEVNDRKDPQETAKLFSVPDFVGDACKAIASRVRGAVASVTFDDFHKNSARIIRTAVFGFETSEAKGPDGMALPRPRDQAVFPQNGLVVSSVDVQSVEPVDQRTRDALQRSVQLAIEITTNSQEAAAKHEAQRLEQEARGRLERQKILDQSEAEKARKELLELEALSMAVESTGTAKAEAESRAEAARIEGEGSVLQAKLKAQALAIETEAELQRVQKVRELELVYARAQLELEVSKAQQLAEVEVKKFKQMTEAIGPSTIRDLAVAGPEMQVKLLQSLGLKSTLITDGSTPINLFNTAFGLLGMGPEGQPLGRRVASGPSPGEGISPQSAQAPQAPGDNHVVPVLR

[6] = target: T6, HeLa cell extract proteins (Homo sapiens, UniProt Q8IUH3)
T6 construct: endogenous in cells; host or cells: HeLa cell extract
T6 sequence (Q8IUH3 1-476): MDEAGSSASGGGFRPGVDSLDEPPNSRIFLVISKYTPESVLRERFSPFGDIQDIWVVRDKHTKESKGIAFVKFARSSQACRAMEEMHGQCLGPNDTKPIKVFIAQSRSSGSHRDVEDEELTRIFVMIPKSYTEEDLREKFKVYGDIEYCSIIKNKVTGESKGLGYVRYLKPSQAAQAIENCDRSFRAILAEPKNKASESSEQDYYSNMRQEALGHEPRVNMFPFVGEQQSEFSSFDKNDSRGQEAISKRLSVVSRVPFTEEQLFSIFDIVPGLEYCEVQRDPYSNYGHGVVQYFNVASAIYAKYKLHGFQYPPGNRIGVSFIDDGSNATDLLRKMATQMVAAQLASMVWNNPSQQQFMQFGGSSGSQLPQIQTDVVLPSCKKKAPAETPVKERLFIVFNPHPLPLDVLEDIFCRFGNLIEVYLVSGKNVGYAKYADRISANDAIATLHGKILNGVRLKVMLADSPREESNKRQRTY

[7] = HeLa, protein RBM45 (ISOFORM 1 OF DEVELOPMENTALLY-REGULATED RNA-BINDING PROTEIN 1)

## Nc1nc2c(c(=O)[nH]1)N(C=O)C(CNc1ccc(C(=O)N[C@@H](CCC(=O)O)C(=O)O)cc1)CN2 (stereo partly drawn) [LEU, leucovorin]
[1]; HeLa, captured protein SEC24B
  fold changes relative to vehicle control: 1.06
[2]; HeLa, captured protein PFKM
  fold changes relative to vehicle control: 1.01
[3]; protein EEF1B2, HeLa
  fold changes relative to vehicle control: 0.84
[4]; HeLa, protein PSMC5
  fold changes relative to vehicle control: 1.02
[5]; HeLa, protein MVP
  fold changes relative to vehicle control: 0.99
[6]; [7]
  fold changes relative to vehicle control: 1.12

## Nc1nc2[nH]cc(CCc3ccc(C(=O)N[C@@H](CCC(=O)O)C(=O)O)cc3)c2c(=O)[nH]1 [PTX, pemetrexed]
[1]
  fold changes relative to vehicle control: 0.94
[2]
  fold changes relative to vehicle control: 0.98
[3]
  fold changes relative to vehicle control: 1
[4]
  fold changes relative to vehicle control: 1.03
[5]
  fold changes relative to vehicle control: 0.98
[6]
  fold changes relative to vehicle control: 1.04

## CCCCCCOc1ccc(Cc2cnc(N)nc2N)cc1 [compound 1]
[1]; protein SEC24B, HeLa
  fold changes relative to vehicle control: 1.05
[2]; captured protein PFKM, HeLa
  fold changes relative to vehicle control: 1.15
[3]; protein EEF1B2, HeLa
  fold changes relative to vehicle control: 1.03
[4]; protein PSMC5, HeLa
  fold changes relative to vehicle control: 1.07
[5]; HeLa, protein MVP
  fold changes relative to vehicle control: 1.06
[6]; HeLa, protein RBM45
  fold changes relative to vehicle control: 1.06

## CCCCCCOc1cccc(Cc2cnc(N)nc2N)c1 [compound 2]
[1]; protein SEC24B, HeLa
  fold changes relative to vehicle control: 1.15
[2]; captured protein PFKM, HeLa
  fold changes relative to vehicle control: 1.2
[3]; protein EEF1B2, HeLa
  fold changes relative to vehicle control: 1.63
[4]; protein PSMC5, HeLa
  fold changes relative to vehicle control: 1.36
[5]; HeLa, protein MVP
  fold changes relative to vehicle control: 1.23
[6]; HeLa, protein RBM45
  fold changes relative to vehicle control: 0.99

## Nc1nc2cccc(-c3ccccc3)c2n1Cc1ccc(Cl)c(Cl)c1 [compound 3]
[1]; protein SEC24B, HeLa
  fold changes relative to vehicle control: 1.01
[2]; captured protein PFKM, HeLa
  fold changes relative to vehicle control: 1.01
[3]; protein EEF1B2, HeLa
  fold changes relative to vehicle control: 1.02
[4]; protein PSMC5, HeLa
  fold changes relative to vehicle control: 1.05
[5]; HeLa, protein MVP
  fold changes relative to vehicle control: 1.02
[6]; HeLa, protein RBM45
  fold changes relative to vehicle control: 0.96

## NCCOCCOCC(=O)Nc1nc2ncc(CNc3ccc(C(=O)NC(CCC(=O)O)C(=O)O)cc3)nc2c(=O)[nH]1 (stereo not drawn) [compound 6]
[1]; HeLa, captured protein SEC24B
  fold changes relative to vehicle control: 0.94
[2]; HeLa, captured protein PFKM
  fold changes relative to vehicle control: 1.02
[3]; protein EEF1B2, HeLa
  fold changes relative to vehicle control: 1.07
[4]; HeLa, protein PSMC5
  fold changes relative to vehicle control: 1.12
[5]; HeLa, protein MVP
  fold changes relative to vehicle control: 0.96
[6]; [7]
  fold changes relative to vehicle control: 1

## NCCCNc1ccc(C(=O)NC(CCC(=O)O)C(=O)O)cc1 (stereo not drawn) [compound 7]
[1]; HeLa, captured protein SEC24B
  fold changes relative to vehicle control: 1.06
[2]; HeLa, captured protein PFKM
  fold changes relative to vehicle control: 1.02
[3]; protein EEF1B2, HeLa
  fold changes relative to vehicle control: 0.87
[4]; HeLa, protein PSMC5
  fold changes relative to vehicle control: 1.04
[5]; HeLa, protein MVP
  fold changes relative to vehicle control: 1.28
[6]; [7]
  fold changes relative to vehicle control: 0.96
